Data published in EP3366286A1, “COMPOUNDS FOR TREATING SEPSIS” (Keller, Johannes, priority 2017, dated 2018).
Entries after “also recorded” stand apart in the source; their conditions may differ.

Assays:
WT mice [1] = test: Survival in lethal endotoxemia (40 mg/kg LPS ip), monitored for 7 days; assay type: in vivo
Method: (§1) Nat Protoc 4, 31-36 (2009). Briefly, an approximately 1 cm abdominal midline incision was made, followed by exposure of the cecum. After ligation, the cecum was punctured three times through and through with a 19-gauge needle and a small portion of feces was pressed out. After repositioning of the bowel, the abdomen was closed in layers using surgical sutures and metallic clips, and 1 ml of 0.9% NaCl (37° Celsius) was slowly injected subcutaneously for resuscitation. For induction of lethal endotoxemia, mice received an intraperitoneal (ip) injection of 40 mg/kg LPS. Survival was monitored at least every 6 h for 7 days after which the experiments were terminated. For pharmacologic proof-of-principle experiments involving II17a, mice received 100 µg/kg PCT and/or 2.5 µg/kg antibody treatment ip 30 minutes before and 12h after induction of septic shock through 40 mg/kg LPS ip. Non-specific IgG was used at equal concentrations. Olcegepant (100 mg/kg) was administered intraperitoneally or subcutaneously as indicated. For in vivo experiments involving expression, histological, and FACS analyses, mice were challenged with a sublethal dose of LPS (10 mg/kg ip). The use of in vivo experiments, especially CLP, was kept to a minimum throughout the study (replace, reduce, refine) in accordance to current recommendations for animal welfare in sepsis research (Lilley 2015). Experimental procedures were performed with approval from the animal care committees of the University Medical Center Hamburg-Eppendorf and the Behörde für Umwelt und Gesundheit der Hansestadt Hamburg.
The number of samples was chosen according to established standards providing sufficient statistical power to enable the detection of biologically relevant differences in animal models. Data were analyzed by two-tailed Student's t-test using Excel software. In the case of multiple comparisons, Bonferroni correction was used. Survival analyses were performed using the log-rank-test. If not indicated otherwise, all data are reported as mean ± SD. p<0.05 was considered statistically significant.

WT mice [2] = test: Survival after cecal ligation and puncture (CLP); assay type: in vivo; settings: 100 mg/kg subcutaneous every 12h (Figure 5F)
Method: as §1, with “For in vivo experiments involving expression, histological, and FACS analyses, mice were challenged with a sublethal dose of LPS (10 mg/kg ip). The use of in vivo experiments, especially CLP, was kept to a minimum throughout the study (replace, reduce, refine) in accordance to current recommendations for animal welfare in sepsis research (Lilley 2015). Experimental procedures were performed with approval from the animal care committees of the University Medical Center Hamburg-Eppendorf and the Behörde für Umwelt und Gesundheit der Hansestadt Hamburg.” left out
(§2) The number of samples was chosen according to established standards providing sufficient statistical power to enable the detection of biologically relevant differences in animal models. Data were analyzed by two-tailed Student's t-test using Excel software. […]

WT mice [3] = test: Serum cytokine levels (ELISA) after sublethal LPS challenge; assay type: in vivo; settings: 10 h after 10 mg/kg LPS, single injection of 100 mg/kg ip (Figure 5D)
Method: as §1, with “The use of in vivo experiments, especially CLP, was kept to a minimum throughout the study (replace, reduce, refine) in accordance to current recommendations for animal welfare in sepsis research (Lilley 2015). Experimental procedures were performed with approval from the animal care committees of the University Medical Center Hamburg-Eppendorf and the Behörde für Umwelt und Gesundheit der Hansestadt Hamburg.” left out
Serum was obtained by cardiac puncture. […] Serum concentrations of PCT, CT and CGRP were measured by ELISA (Kamiya #KT-25866, Bachem #S-1488.0001 BA, S-1167.0001 BA).

αCgrp-deficient mice = test: Survival in lethal endotoxemia (40 mg/kg LPS ip); assay type: in vivo; settings: 100 mg/kg ip immediately before 40 mg/kg LPS (Figure 5H)
Method: as §1, with “For in vivo experiments involving expression, histological, and FACS analyses, mice were challenged with a sublethal dose of LPS (10 mg/kg ip). The use of in vivo experiments, especially CLP, was kept to a minimum throughout the study (replace, reduce, refine) in accordance to current recommendations for animal welfare in sepsis research (Lilley 2015). Experimental procedures were performed with approval from the animal care committees of the University Medical Center Hamburg-Eppendorf and the Behörde für Umwelt und Gesundheit der Hansestadt Hamburg.” left out
as §2

Calca-deficient mice = test: Survival in lethal endotoxemia (40 mg/kg LPS ip); assay type: in vivo; settings: 100 mg/kg ip co-administered with (immediately before) 40 mg/kg LPS ip (Figure 5G)
Method: as §1, with “For in vivo experiments involving expression, histological, and FACS analyses, mice were challenged with a sublethal dose of LPS (10 mg/kg ip). The use of in vivo experiments, especially CLP, was kept to a minimum throughout the study (replace, reduce, refine) in accordance to current recommendations for animal welfare in sepsis research (Lilley 2015). Experimental procedures were performed with approval from the animal care committees of the University Medical Center Hamburg-Eppendorf and the Behörde für Umwelt und Gesundheit der Hansestadt Hamburg.” left out
as §2

[4] = tested on: bone marrow-derived macrophages; test: Cytokine mRNA expression (qRT-PCR) in primary macrophages stimulated with LPS and/or PCT; assay type: cell-based, mouse; settings: macrophages in vitro, LPS plus PCT, mRNA levels (Figure 5C)
Method: RNA was isolated using the RNeasyMini kit (Qiagen). For qRT-PCR expression analysis, 1 µg of RNA was reverse transcribed using SuperScriptIII (Invitrogen) according to the manufacturer's instructions. qRT-PCR analysis was performed using predesigned TaqMan gene expression assays (Applied Biosystems) and Gapdh as internal control.
Primary macrophages were generated from bone marrow cells cultured in DMEM supplemented 10% FCS and 40 ng/ml M-CSF for 7 days. Primary DC were generated from mouse bone marrow cells which were grown in RPMI 1640 medium with 10% FBS supplemented with 100 U/ml GM-CSF and 20 ng/ml IL-4 for 7 days. For γδT cell preparations, spleens were dissected and processed through a 40-µm filter, followed by lysis of erythrocytes. γδT lymphocytes were subsequently purified using magnetic labeled beads (Miltenyi Biotec, #130-092-125). For the generation of primary osteoblasts, bone marrow cells were differentiated for 10 days in the presence of 25 µg/ml ascorbic acid and 5 mM β-glycerophosphate as described previously (Keller, J., et al. Calcitonin controls bone formation by inhibiting the release of sphingosine 1-phosphate from osteoclasts. Nat Commun 5, 5215 (2014)). […]

In the case of `NCCCC[C@H](NC(=O)[C@@H](Cc1cc(Br)c(O)c(Br)c1)NC(=O)N1CCC(N2Cc3ccccc3NC2=O)CC1)C(=O)N1CCN(c2ccncc2)CC1` [olcegepant, N-((1R)-2-(((1S)-5-amino-1-((4-(pyridin-4-yl)piperazin-1-yl)carbonyl)pentyl)amino)-1-(3,5-dibromo-4-hydroxybenzyl)-2-oxoethyl)-4-(2-oxo-1,4-dihydroquinazolin-3(2H)-yl)piperidine-1-carboxamide], the mortality (WT mice [1]; 100 mg/kg ip immediately before 40 mg/kg LPS ip (Figure 5E)) is reported as “significant reduction of mortality”, the survival (WT mice [1]; intermittent subcutaneous treatment 100 mg/kg every 12 hours, starting 4h after ip LPS challenge (Figure 5I)) is reported as “significantly prolonged survival” and the mortality (WT mice [1]; single 100 mg/kg ip 4h after 40 mg/kg LPS ip, into the inflamed peritoneal cavity (Figure 12)) is reported as “increased mortality; also recorded: decreased survival”. For the same compound, the survival (WT mice [1]; single subcutaneous injection 100 mg/kg 4h after ip LPS challenge (Figure 5I)) was “trend towards improved survival”, the survival (WT mice [1]; subcutaneous 4h before LPS (40 mg/kg ip), prophylactic (Figure 5J)) was “favorable effect” and the mortality (WT mice [2]) was “significantly reduced”. For the same compound, the II1b levels (WT mice [3]) was “significant reduction”, the II17a levels (WT mice [3]) was “significant reduction” and the mortality rates (αCgrp-deficient mice) was “significantly improved mortality rates”. For the same compound, the survival (Calca-deficient mice) was “did not further improve the survival”, the “LPS-dependent stimulatory effect of PCT on II1b expression” value [4] was “inhibited” and the “LPS-dependent stimulatory effect of PCT on II6 expression” value [4] was “inhibited”.
